Assay results taken from EP4722201A1, “3-PHENYLISOXAZOLINE-5-CARBOXAMIDE COMPOUND, AND PREPARATION METHOD THEREFOR, HERBICIDAL COMPOSITION THEREOF AND USE THEREOF” (Jiangsu Flag Chemical Industry Co., Ltd, priority 2023, dated 2024).

Assays:
Assay in all cases: Indoor herbicide activity determination, Seed Treatment; pre-emergence (soil spray)
Assay type in all cases: in vivo
Digitaria sanguinalis = settings: read-out: Herbicidal activities (inhibition rate) Digitaria sanguinalis; for inhibition at 120 g/ha: 120 g a.i./ha
In short: (§1)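 Sow seeds into soil-filled 7 cm pots (sandy, pH 6.1, 1% organic matter) and cover them. Water from beneath, then incubate 24 h in a lit, temperature-controlled chamber. Spray the soil in a traveling tower, let it dry in shade, grow on 21 days, and weigh fresh biomass against controls.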

Lolium multiflorum = settings: Dosage 240 g a.i./ha
In short: as §1

Alopecurus japonicus = system: Alopecurus japonicus
In short: as §1

Eclipta prostrata = settings: read-out: Herbicidal activities (inhibition rate) Eclipta prostrata; for inhibition at 120 g/ha: 120 g a.i./ha
In short: as §1

Leptochloa chinensis = system: Leptochloa chinensis
In short: as §1

Alopecurus myosuroides = system: Alopecurus myosuroides
In short: as §1

Aegilops tauschii = settings: read-out: Herbicidal activities (inhibition rate) Aegilops tauschii; for inhibition at 120 g/ha: 120 g a.i./ha
In short: as §1

Eleusine indica = system: Eleusine indica
In short: as §1

Cyperus iria = settings: read-out: Herbicidal activities (inhibition rate) Cyperus iria; for inhibition at 120 g/ha: 120 g a.i./ha
In short: as §1

| Compound | inhibition at 120 g/ha (Digitaria sanguinalis) [%] | Herbicidal activities, Lolium multiflorum (inhibition rate class) (Lolium multiflorum) | Herbicidal activities, Alopecurus japonicus (inhibition rate class) (Alopecurus japonicus; Dosage 240 g a.i./ha) | inhibition at 120 g/ha (Eclipta prostrata) [%] | Herbicidal activities, Leptochloa chinensis (inhibition rate class) (Leptochloa chinensis; Dosage 240 g a.i./ha) | Herbicidal activities, Alopecurus myosuroides (inhibition rate class) (Alopecurus myosuroides; Dosage 240 g a.i./ha) | inhibition at 120 g/ha (Aegilops tauschii) [%] | Herbicidal activities, Eleusine indica (inhibition rate class) (Eleusine indica; Dosage 240 g a.i./ha) | inhibition at 120 g/ha (Cyperus iria) [%] | inhibition at 60 g/ha (Digitaria sanguinalis; 60 g a.i./ha) [%] | Herbicidal activities, Alopecurus japonicus (inhibition rate class) (Alopecurus japonicus; Dosage 120 g a.i./ha) | inhibition at 60 g/ha (Eclipta prostrata; 60 g a.i./ha) [%] | Herbicidal activities, Leptochloa chinensis (inhibition rate class) (Leptochloa chinensis; Dosage 120 g a.i./ha) | Herbicidal activities, Alopecurus myosuroides (inhibition rate class) (Alopecurus myosuroides; Dosage 120 g a.i./ha) | inhibition at 60 g/ha (Aegilops tauschii; 60 g a.i./ha) [%] | Herbicidal activities, Eleusine indica (inhibition rate class) (Eleusine indica; Dosage 120 g a.i./ha) | inhibition at 60 g/ha (Cyperus iria; 60 g a.i./ha) [%] |
| --- | --- | --- | --- | --- | --- | --- | --- | --- | --- | --- | --- | --- | --- | --- | --- | --- | --- |
| C=CC1(C(=O)N[C@H]2CO[C@@H](C(=O)OC)C2)CC(c2cc(F)cc(C(F)(F)F)c2)=NO1 (mixture of isomers) [I-368] | 60 to 80 | A (A indicates that the inhibition rate was greater than or equal to 80% to 100%) | A (A indicates that the inhibition rate was greater than or equal to 80% to 100%) | 40 to 60 | A (A indicates that the inhibition rate was greater than or equal to 80% to 100%) | A (A indicates that the inhibition rate was greater than or equal to 80% to 100%) | 80 to 100 | A (A indicates that the inhibition rate was greater than or equal to 80% to 100%) | 60 to 80 |  |  |  |  |  |  |  |  |
| COC(=O)[C@H]1C[C@@H](NC(=O)C2(C)CC(c3cc(F)cc(C(F)(F)F)c3)=NO2)CO1 (mixture of isomers) [I-377] | 80 to 100 | A (A indicates that the inhibition rate was greater than or equal to 80% to 100%) | A (A indicates that the inhibition rate was greater than or equal to 80% to 100%) | 40 to 60 | A (A indicates that the inhibition rate was greater than or equal to 80% to 100%) | A (A indicates that the inhibition rate was greater than or equal to 80% to 100%) | 80 to 100 |  | 60 to 80 |  |  |  |  |  |  |  |  |
| CC1(C(=O)N[C@H]2CO[C@@H](C(=O)O)C2)CC(c2cc(F)cc(OC(F)(F)F)c2)=NO1 (mixture of isomers) [I-378] | 80 to 100 | A (A indicates that the inhibition rate was greater than or equal to 80% to 100%) | A (A indicates that the inhibition rate was greater than or equal to 80% to 100%) | 40 to 60 | A (A indicates that the inhibition rate was greater than or equal to 80% to 100%) | A (A indicates that the inhibition rate was greater than or equal to 80% to 100%) | 80 to 100 |  | 60 to 80 |  |  |  |  |  |  |  |  |
| C#CCOC(=O)[C@H]1C[C@@H](NC(=O)[C@@]2(C(F)(F)F)CC(c3cc(F)cc(OC(F)(F)F)c3)=NO2)C1 [I-255] |  |  |  |  |  |  |  |  |  | 60 to 80 | A (A indicates that the inhibition rate was greater than or equal to 80% to 100%) | 60 to 80 | A (A indicates that the inhibition rate was greater than or equal to 80% to 100%) | A (A indicates that the inhibition rate was greater than or equal to 80% to 100%) | 80 to 100 | A (A indicates that the inhibition rate was greater than or equal to 80% to 100%) | 80 to 100 |
| COC(=O)C1CC(NC(=O)C2(C)CC(c3cc(Cl)cc(C(F)(F)F)c3)=NO2)CO1 (centres unmarked) [I-386] | 80 to 100 | A (A indicates that the inhibition rate was greater than or equal to 80% to 100%) | A (A indicates that the inhibition rate was greater than or equal to 80% to 100%) | 40 to 60 | A (A indicates that the inhibition rate was greater than or equal to 80% to 100%) | A (A indicates that the inhibition rate was greater than or equal to 80% to 100%) | 80 to 100 |  | 60 to 80 |  |  |  |  |  |  |  |  |
| COC(=O)C1CC(NC(=O)C2(C)CC(c3cc(Cl)cc(OC(F)(F)F)c3)=NO2)CO1 (centres unmarked) [I-387] | 80 to 100 | A (A indicates that the inhibition rate was greater than or equal to 80% to 100%) | A (A indicates that the inhibition rate was greater than or equal to 80% to 100%) | 60 to 80 | A (A indicates that the inhibition rate was greater than or equal to 80% to 100%) | A (A indicates that the inhibition rate was greater than or equal to 80% to 100%) | 80 to 100 |  | 60 to 80 |  |  |  |  |  |  |  |  |
| CC1(C(=O)NC2COC(C(=O)O)C2)CC(c2cc(Cl)cc(OC(F)F)c2)=NO1 (centres unmarked) [I-388] | 60 to 80 | B (B indicates that the inhibition rate was greater than or equal to 60% to less than 80%) | A (A indicates that the inhibition rate was greater than or equal to 80% to 100%) | 60 to 80 | A (A indicates that the inhibition rate was greater than or equal to 80% to 100%) | A (A indicates that the inhibition rate was greater than or equal to 80% to 100%) | 80 to 100 |  | 60 to 80 |  |  |  |  |  |  |  |  |
| COC(=O)C1CC(NC(=O)C2(C)CC(c3cc(Cl)cc(OC(F)F)c3)=NO2)CO1 (centres unmarked) [I-390] | 60 to 80 | B (B indicates that the inhibition rate was greater than or equal to 60% to less than 80%) | A (A indicates that the inhibition rate was greater than or equal to 80% to 100%) | 60 to 80 | A (A indicates that the inhibition rate was greater than or equal to 80% to 100%) | A (A indicates that the inhibition rate was greater than or equal to 80% to 100%) | 80 to 100 |  | 60 to 80 |  |  |  |  |  |  |  |  |
| COC(=O)C1CC(NC(=O)C2(C(F)(F)F)CC(c3cc(F)cc(C(F)(F)F)c3)=NO2)CO1 (centres unmarked) [I-392] | 80 to 100 | A (A indicates that the inhibition rate was greater than or equal to 80% to 100%) | A (A indicates that the inhibition rate was greater than or equal to 80% to 100%) | 60 to 80 | A (A indicates that the inhibition rate was greater than or equal to 80% to 100%) | A (A indicates that the inhibition rate was greater than or equal to 80% to 100%) | 80 to 100 |  | 60 to 80 |  |  |  |  |  |  |  |  |
| COC(=O)C1CC(NC(=O)C2(C(F)(F)F)CC(c3cc(F)cc(OC(F)(F)F)c3)=NO2)CO1 (centres unmarked) [I-393] | 60 to 80 | A (A indicates that the inhibition rate was greater than or equal to 80% to 100%) | A (A indicates that the inhibition rate was greater than or equal to 80% to 100%) | 60 to 80 | A (A indicates that the inhibition rate was greater than or equal to 80% to 100%) | A (A indicates that the inhibition rate was greater than or equal to 80% to 100%) | 80 to 100 |  | 60 to 80 |  |  |  |  |  |  |  |  |
| COC(=O)C1CC(NC(=O)C2(C(F)(F)F)CC(c3cc(Cl)cc(C(F)(F)F)c3)=NO2)CO1 (centres unmarked) [I-399] | 80 to 100 | B (B indicates that the inhibition rate was greater than or equal to 60% to less than 80%) | B (B indicates that the inhibition rate was greater than or equal to 60% to less than 80%) | 60 to 80 | A (A indicates that the inhibition rate was greater than or equal to 80% to 100%) | A (A indicates that the inhibition rate was greater than or equal to 80% to 100%) | 80 to 100 |  | 60 to 80 |  |  |  |  |  |  |  |  |
